According to ChEMBL document CHEMBL4665769, “Artemyrianolides A-S, Cytotoxic Sesquiterpenoids from Artemisia myriantha” (J Nat Prod, 2020):

Key:
Format in all cases: functional, cell-based
SMMC-7721 = assay: Cytotoxicity against human SMMC-7721 cells assessed as reduction in cell viability after 48 hrs by MTT assay; conditions: SMMC-7721, 48 h
HepG2 = assay: Cytotoxicity against human HepG2 cells assessed as reduction in cell viability after 48 hrs by MTT assay; conditions: HepG2, 48 h
Huh-7 = assay: Cytotoxicity against human Huh-7 cells assessed as reduction in cell viability after 48 hrs by MTT assay; conditions: Huh-7, 48 h

Row | SMILES | IC50 (SMMC-7721) [µM] | IC50 (HepG2) [µM] | IC50 (Huh-7) [µM]
1 | C=C1C(=O)O[C@@H]2CC(=C)[C@@H]3CC[C@@](C)(O)[C@@H]3C[C@H]12 | > 10 | > 10 | > 10
2 | C=C1C(=O)O[C@@H]2C[C@@]3(C)CCCC(=C)[C@]3(O)C[C@H]12 [TELEKIN] | > 10 | > 10 | > 10
3 | C=C1C(=O)O[C@@H]2C[C@H](C)[C@]3(/C=C/C(C)=O)O[C@@H]3C[C@H]12 | > 10 | > 10 | 8.2
4 | CNC(=O)c1cc(Oc2ccc(NC(=O)Nc3ccc(Cl)c(C(F)(F)F)c3)cc2)ccn1 [SORAFENIB] | > 10 | 8 | 10.1
5 | C=C1C(=O)O[C@@H]2C[C@@]3(C)C=CC(=O)C(C)=C3C[C@H]12 | > 10 | > 10 | > 10
6 | C=C1C(=O)O[C@@H]2C[C@]3(C)[C@@H](CCC(C)=O)[C@@H]3C[C@H]12 | > 10 | > 7.4 | 7.8
7 | C=C1C[C@@H](OC(C)=O)/C=C(\C)C[C@@H]2OC(=O)C(=C)[C@H]2CC1=O | 3.1 | 4.9 | 4.3
8 | C=C1C[C@@H](OC(C)=O)/C=C(\C)C[C@@H]2OC(=O)C(=C)[C@H]2C[C@@H]1OO | > 10 | > 10 | 10
9 | C=C1C(=O)O[C@H]2C/C(C)=C/[C@H](OC(C)=O)C[C@@]3(CO3)C(=O)C[C@H]12 | > 10 | 8.6 | 8.8
10 | C=C1C(=O)O[C@H]2C[C@@]3(C)[C@H](O)CCC(=C)[C@]3(O)C[C@H]12 | > 10 | > 10 | > 10
11 | C=C1C(=O)O[C@H]2C/C(C)=C/[C@H](OC(C)=O)CC(=C)[C@@H](O)C[C@H]12 | > 10 | > 10 | > 10
12 | C=C1C(=O)O[C@@H]2C[C@]3(C)O[C@H](C[C@H]12)C(=C)CC[C@@H]3O | > 10 | > 10 | > 10
13 | C=C1C(=O)O[C@H]2C[C@@]3(C)[C@H](O)CCC(=C)[C@]3(OO)C[C@H]12 | > 10 | > 10 | > 10
14 | C=C1C[C@@H](OC(C)=O)/C=C(\C)C[C@@H]2OC(=O)C(=C)[C@H]2C[C@H]1O | > 10 | > 10 | > 10
15 | C=C1C[C@@H]2OC(=O)C(=C)[C@H]2C[C@@H]2[C@@H]1[C@H](OC(C)=O)C[C@@]2(C)O | > 10 | > 10 | > 10
16 | C=C1C[C@@H](OC(C)=O)/C=C(\C)C[C@@H]2OC(=O)C(=C)[C@H]2C[C@@H]1OC(C)=O | > 10 | > 10 | > 10
17 | C=C1C(=O)O[C@@H]2C[C@]3(C)[C@@H](C[C@H]12)[C@H](C)C(=O)[C@@H]1O[C@@H]13 | > 10 | > 10 | > 10
18 | C=C1C[C@H]2OC(=O)C(=C)[C@H]2C[C@@H](O)C(=C)CCC1=O | > 10 | > 10 | > 10
19 | C=C1C(=O)O[C@H]2C/C(C)=C/[C@H](OC(C)=O)C[C@@]3(C)O[C@H]3C[C@H]12 | > 10 | > 10 | > 10
